One test concerns the target T1, GK-GKRP (Homo sapiens, UniProt Q14397).
T1 sequence (Q14397 1-625): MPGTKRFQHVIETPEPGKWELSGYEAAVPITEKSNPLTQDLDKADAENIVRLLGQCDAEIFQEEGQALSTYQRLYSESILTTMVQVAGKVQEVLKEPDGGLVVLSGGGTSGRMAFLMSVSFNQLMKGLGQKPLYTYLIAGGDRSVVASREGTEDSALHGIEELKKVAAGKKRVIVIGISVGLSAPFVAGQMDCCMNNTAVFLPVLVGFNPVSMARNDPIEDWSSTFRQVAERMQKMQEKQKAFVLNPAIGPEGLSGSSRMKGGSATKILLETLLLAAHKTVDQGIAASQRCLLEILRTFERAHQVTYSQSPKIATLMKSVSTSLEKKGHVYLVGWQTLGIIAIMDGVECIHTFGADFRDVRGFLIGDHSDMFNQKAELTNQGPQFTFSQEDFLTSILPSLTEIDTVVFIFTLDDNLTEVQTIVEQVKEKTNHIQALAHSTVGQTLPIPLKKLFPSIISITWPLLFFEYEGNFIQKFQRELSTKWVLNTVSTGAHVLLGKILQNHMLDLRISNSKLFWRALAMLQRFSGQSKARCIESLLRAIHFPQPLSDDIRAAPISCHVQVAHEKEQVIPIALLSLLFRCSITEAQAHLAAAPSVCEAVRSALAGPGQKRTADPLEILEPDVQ
Put plainly: biochemical. Particulars: GK-GKRP IC50 (Binding).
Broadly, the IC50 is the midpoint of a concentration-inhibition curve. A lower IC50 goes with greater potency in that assay. Compound `Nc1ccc(S(=O)(=O)N2CCN(c3ccc(C(O)(C(F)(F)F)C(F)(F)F)cc3)[C@@H](CS(=O)(=O)c3ccccc3)C2)cn1` [Example 273, 2-(4-((2R)-4-((6-amino-3-pyridinyl)sulfonyl)-2-((phenylsulfonyl)methyl)-1-piperazinyl)phenyl)-1,1,1,3,3,3-hexafluoro-2-propanol] yielded an IC50 of 49 nM.

In turn, `C[C@H]1COCC(=O)N1C[C@H]1CN(S(=O)(=O)c2cccs2)CCN1c1ccc([C@](C)(O)C(F)(F)F)cc1` [Example 272, (S)-5-methyl-4-(((S)-4-(tiophen-2-ylsulfonyl)-1-(4-((S)-1,1,1-trifluoro-2-hydroxypropan-2-yl)phenyl)piperazin-2-yl)methyl)morpholin-3-one] yielded an IC50 of 217 nM.

As for `CC#CC1CN(S(=O)(=O)c2ccc(N)nc2)CCN1c1ncc(C(C)(O)C(F)(F)F)cn1` (single isomer, unassigned) [Example 251 Second Eluting Peak from Set One, 2-(2-(4-((6-amino-3-pyridinyl)sulfonyl)-2-(1-propyn-1-yl)-1-piperazinyl)-5-pyrimidinyl)-1,1,1-trifluoro-2-propanol], the IC50 was 9 nM.

Take `CC#CC1CN(S(=O)(=O)c2ccc(N)nc2)CCN1c1ncc(C(C)(O)C(F)(F)F)cn1` (single isomer, unassigned) [Example 251 Second Eluting Peak from Set Two, 2-(2-(4-((6-amino-3-pyridinyl)sulfonyl)-2-(1-propyn-1-yl)-1-piperazinyl)-5-pyrimidinyl)-1,1,1-trifluoro-2-propanol]: the IC50 was 15300 nM.

In the case of `CC(C)CS(=O)(=O)N(C[C@H]1CN(S(=O)(=O)c2cccs2)CCN1c1ccc(C(C)(O)C(F)(F)F)cc1)c1cccnc1` (mixture of isomers) [Example 253, 2-methyl-N-3-pyridinyl-N-(((2R)-4-(2-thiophenylsulfonyl)-1-(4-(2,2,2-trifluoro-1-hydroxy-1-methylethyl)phenyl)-2-piperazinyl)methyl)-1-propanesulfonamide], the IC50 was found to be 35 nM.

In turn, `CC(c1ccccc1)N(C[C@H]1CN(S(=O)(=O)c2cccs2)CCN1c1ccc(C(C)(O)C(F)(F)F)cc1)S(C)(=O)=O` (mixture of isomers) [Example 252, N-(1-phenylethyl)-N-(((2R)-4-(2-thiophenylsulfonyl)-1-(4-(2,2,2-trifluoro-1-hydroxy-1-methylethyl)phenyl)-2-piperazinyl)methyl)methanesulfonamide] gave an IC50 of 671 nM.

The compound `Nc1ccc(S(=O)(=O)N2CCN(c3ncc(C(O)(C(F)(F)F)C(F)(F)F)cn3)[C@@H](CN3C4CCC3COC4)C2)cn1` [Example 271, 2-(2-((2S)-4-((6-amino-3-pyridinyl)sulfonyl)-2-(3-oxa-8-azabicyclo[3.2.1]oct-8-ylmethyl)-1-piperazinyl)-5-pyrimidinyl)-1,1,1,3,3,3-hexafluoro-2-propanol] yielded an IC50 of 3 nM.

`CC#CC1CN(S(=O)(=O)c2ccc(N)nc2)CCN1c1ncc(C(C)(O)C(F)(F)F)cn1` (mixture of isomers) [Example 251, 2-(2-(4-((6-amino-3-pyridinyl)sulfonyl)-2-(1-propyn-1-yl)-1-piperazinyl)-5-pyrimidinyl)-1,1,1-trifluoro-2-propanol] yielded an IC50 of 36 nM.

`CC(O)(c1ccc(N2CCN(S(=O)(=O)c3cccs3)C[C@@H]2CN2CCNC(C(F)(F)F)C2)cc1)C(F)(F)F` (single isomer, unassigned) [Example 270 Peak 1]: the 50% inhibitory concentration (IC50) was found to be 251 nM.

For the compound `CC#CC1CN(S(=O)(=O)c2nnc(N)s2)CCN1c1ccc(C(O)(C(F)(F)F)C(F)(F)F)cc1` (racemic) [Example 249, 2-(4-(4-((5-amino-1,3,4-thiadiazol-2-yl)sulfonyl)-2-(1-propyn-1-yl)-1-piperazinyl)phenyl)-1,1,1,3,3,3-hexafluoro-2-propanol], the IC50 came out at 112 nM.

Compound `CC(O)(c1cnc(-c2ccc(S(=O)(=O)c3ccc(N)nc3)cc2)nc1)C(F)(F)F` (racemic) [Example 265, 2-(2-(4-((6-amino-3-pyridinyl)sulfonyl)phenyl)-5-pyrimidinyl)-1,1,1-trifluoro-2-propanol] showed a half-inhibitory concentration (IC50) of 229 nM.

Take `CC#CC1CN(S(=O)(=O)c2ccc(N)nc2)CCN1c1ncc(C(C)(O)C(F)(F)F)cn1` (single isomer, unassigned) [Example 251 First Eluting Peak from Set One, 2-(2-(4-((6-amino-3-pyridinyl)sulfonyl)-2-(1-propyn-1-yl)-1-piperazinyl)-5-pyrimidinyl)-1,1,1-trifluoro-2-propanol]: the IC50 was 15 nM.

Consider `CC(O)(c1ccc(N2CCN(S(=O)(=O)c3cccs3)C[C@@H]2CNS(=O)(=O)c2ccc(F)cc2)cc1)C(F)(F)F` (mixture of isomers) [Example 254, 4-fluoro-N-(((2S)-4-(2-thiophenylsulfonyl)-1-(4-(2,2,2-trifluoro-1-hydroxy-1-methylethyl)phenyl)-2-piperazinyl)methyl)benzenesulfonamide], for which the IC50 was found to be 323 nM.

As to `CC(O)(c1ccc(N2CCN(S(=O)(=O)c3cccs3)C[C@@H]2CN2CCNC(C(F)(F)F)C2)cc1)C(F)(F)F` (single isomer, unassigned) [Example 270 Peak 2], the concentration for half-maximal inhibition (IC50) was 463 nM.

Turning to `CC#CC1CN(S(=O)(=O)c2cnc(N)c(F)c2)CCN1c1ccc(C(O)(C(F)(F)F)C(F)(F)F)cc1` (racemic) [Example 250, 2-(4-(4-((6-amino-5-fluoro-3-pyridinyl)sulfonyl)-2-(1-propyn-1-yl)-1-piperazinyl)phenyl)-1,1,1,3,3,3-hexafluoro-2-propanol], the IC50 came out at 15 nM.

`CC#C[C@H]1CN(S(=O)(=O)c2ccccc2)CCN1c1ccc(C(O)(C(F)(F)F)C(F)(F)F)cc1` [Example 247, 1,1,1,3,3,3-hexafluoro-2-(4-((2S)-4-(phenylsulfonyl)-2-(1-propyn-1-yl)-1-piperazinyl)phenyl)-2-propanol]: the concentration for half-maximal inhibition (IC50) was found to be 21 nM.

Compound `CC#CC1CN(S(=O)(=O)c2ccc(N)nc2)CCN1c1ncc(C(C)(O)C(F)(F)F)cn1` (single isomer, unassigned) [Example 251 First Eluting Peak from Set Two, 2-(2-(4-((6-amino-3-pyridinyl)sulfonyl)-2-(1-propyn-1-yl)-1-piperazinyl)-5-pyrimidinyl)-1,1,1-trifluoro-2-propanol] registered an IC50 of 11300 nM.

Consider `CC#CC1CN(S(=O)(=O)c2nccs2)CCN1c1ccc(C(O)(C(F)(F)F)C(F)(F)F)cc1` (stereo not shown) [Example 248], for which the IC50 came to 15 nM.

In turn, `CC(O)CC1CN(S(=O)(=O)c2ccc(N)nc2)CCN1c1ncc(C(O)(C(F)(F)F)C(F)(F)F)cn1` (stereo not shown) [Example 244, 2-(2-(4-((6-amino-3-pyridinyl)sulfonyl)-2-(2-hydroxypropyl)-1-piperazinyl)-5-pyrimidinyl)-1,1,1,3,3,3-hexafluoro-2-propanol] gave an IC50 of 743 nM.

Turning to `CC#Cc1cc(C(O)(C(F)(F)F)C(F)(F)F)ccc1N1CCN(S(=O)(=O)c2cccs2)CC1` [Example 262, 1,1,1,3,3,3-hexafluoro-2-(3-(1-propyn-1-yl)-4-(4-(2-thiophenylsulfonyl)-1-piperazinyl)phenyl)-2-propanol], the half-maximal inhibitory concentration (IC50) was 834 nM.

`CC(=O)N(C[C@H]1CN(S(=O)(=O)c2cccs2)CCN1c1ccc(C(C)(O)C(F)(F)F)cc1)c1ccc(F)cc1` (mixture of isomers) [Example 256, N-(4-fluorophenyl)-N-(((2S)-4-(2-thiophenylsulfonyl)-1-(4-(2,2,2-trifluoro-1-hydroxy-1-methylethyl)phenyl)-2-piperazinyl)methyl)acetamide] yielded an IC50 of 23 nM.

The next test deals with T2, GKRP (Glucokinase Regulatory Protein) with human His-hepatic GK (Homo sapiens, UniProt Q14397).
T2 sequence (Q14397 1-625): T1 sequence (Q14397 1-625)
Nature of the test: GKRP LC MS/MS Biochemical Assay. The following applies: GK-GKRP EC50 (LC MS/MS), 13C-glucose-6-phosphate formation; 1 μM GKRP (10×), 30 nM GK (5×). The method in brief:
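Human His-hepatic GK (working stock 30 nM, 5×) with GKRP in 50 mM Tris pH 7.5, 4 mM MgCl2, 6% DMSO, DTT, BSA and Brij-35. After a 30 min preincubation, GK was added and the reaction ran 30 min at room temperature. Stopped with acetonitrile; 13C-glucose-6-phosphate formed from 13C-glucose quantified by LC MS/MS.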
Broadly, the EC50 is the concentration at which the effect is half-maximal. Higher therefore signals weaker potency. Compound `CC(C)(O)C#Cc1cc(-c2ccc(C(C)(O)C(F)(F)F)cc2)ccc1S(=O)(=O)c1ccccc1` (racemic) [Example 20, 2-methyl-4-(4-(phenylsulfonyl)-4′-(2,2,2-trifluoro-1-hydroxy-1-methylethyl)-3-biphenylyl)-3-butyn-2-ol] yielded a concentration for a half-maximal effect (EC50) of 2250 nM.

As for `O=S(=O)(c1ccccc1Cl)N1CCN(c2ccc(C(O)(C(F)(F)F)C(F)(F)F)cc2)CC1` [Example 10, 2-(4-(4-((2-chlorophenyl)sulfonyl)-1-piperazinyl)phenyl)-1,1,1,3,3,3-hexafluoro-2-propanol], the response was half-maximal at 2600 nM (EC50).

For the next test, the target named is T2, GKRP (Glucokinase Regulatory Protein) with human His-hepatic GK. Nature of the test: GKRP NADPH Coupled Assay. The following applies: GK-GKRP EC50 (NADPH-coupled), indirect measure of glucose-6-phosphate, fluorescence; 1 μM GKRP (10×), 20 nM GK (5×). It counts as biochemical. The method in brief: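 Human His-hepatic GK (5× stock 20 nM) in 50 mM Tris pH 7.5, 4 mM MgCl2, 6% DMSO, 0.1% BSA, 0.01% Brij-35, with GKRP and compound preincubated 30 min, then reaction 1 h at RT. Glucose-6-phosphate read indirectly via G6P dehydrogenase-coupled NADPH formation from β-NADP (2× stop/detection reagent, pH 9.2, 5 min).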
As for `CC(C)(O)C#Cc1cc(-c2ccc(C(C)(O)C(F)(F)F)cc2)ccc1S(=O)(=O)c1ccccc1` (racemic) [Example 20, 2-methyl-4-(4-(phenylsulfonyl)-4′-(2,2,2-trifluoro-1-hydroxy-1-methylethyl)-3-biphenylyl)-3-butyn-2-ol], the concentration giving a half-maximal response (EC50) is 1800 nM.

In turn, `O=S(=O)(c1ccccc1Cl)N1CCN(c2ccc(C(O)(C(F)(F)F)C(F)(F)F)cc2)CC1` [Example 10, 2-(4-(4-((2-chlorophenyl)sulfonyl)-1-piperazinyl)phenyl)-1,1,1,3,3,3-hexafluoro-2-propanol] returned an EC50 of 3950 nM.

Values taken from US8431563B2 (priority 2010, dated 2013).
